Source: ChEMBL document CHEMBL3885881, “DrugMatrix”

Organism: Rattus norvegicus
Experiment: DrugMatrix - Regimen: Daily Repeat
Assay type: toxicity, organism-based, Sprague-Dawley
Parameters: regimen Daily Repeat, gender Male, age 6-8 weeks
Details: in vivo, po, route oral GAVAGE, vehicle .5 % CMC; for ABSOLUTE BASOPHIL / ABSOLUTE EOSINOPHIL / ABSOLUTE LYMPHOCYTE / ABSOLUTE MONOCYTE / ABSOLUTE SEGMENTED NEUTROPHIL / BASOPHIL / EOSINOPHIL / ERYTHROCYTE COUNT / HEMATOCRIT / HEMOGLOBIN / LEUKOCYTE COUNT / LYMPHOCYTE / MEAN CORPUSCULAR HEMOGLOBIN / MEAN CORPUSCULAR HEMOGLOBIN CONCENTRATION / MEAN CORPUSCULAR VOLUME / MONOCYTE / NEUTROPHIL / NUCLEATED RED BLOOD CELLS / PLATELET COUNT: tissue Blood; for ALANINE AMINOTRANSFERASE / ALBUMIN / ALKALINE PHOSPHATASE / ASPARTATE AMINOTRANSFERASE / BLOOD UREA NITROGEN / CARBON DIOXIDE / CHLORIDE / CHOLESTEROL / CREATINE PHOSPHOKINASE / CREATININE / GLUCOSE / LACTATE DEHYDROGENASE / LIPASE / PHOSPHORUS / POTASSIUM / SODIUM / TOTAL BILIRUBIN / TOTAL PROTEIN / URIC ACID: tissue Plasma
[1] = 30 mg/kg, 120 h, dose level Low, time 5 day
[2] = 2000 mg/kg, 72 h, dose level High, time 3 day
[3] = 2000 mg/kg, 120 h, dose level High, time 5 day

## CCOc1cc(N)c(Cl)cc1C(=O)NCC1CN(Cc2ccc(F)cc2)CCO1 (centres undefined) [MOSAPRIDE]
[1]
  ABSOLUTE BASOPHIL: 0 CELLS/uL
  ABSOLUTE EOSINOPHIL: 184 CELLS/uL
  ABSOLUTE LYMPHOCYTE: 14085.33 CELLS/uL
  ABSOLUTE MONOCYTE: 124 CELLS/uL
  ABSOLUTE SEGMENTED NEUTROPHIL: 940 CELLS/uL
  BASOPHIL: 0%
  EOSINOPHIL: 1.33%
  ERYTHROCYTE COUNT: 5.58 x10E6/uL
  HEMATOCRIT: 33.97%
  HEMOGLOBIN: 13.4 G/DL
  LEUKOCYTE COUNT: 15.33 x10E3/uL
  LYMPHOCYTE: 91.33%
  MEAN CORPUSCULAR HEMOGLOBIN: 24.07 pg
  MEAN CORPUSCULAR HEMOGLOBIN CONCENTRATION: 39.43 G/DL
  MEAN CORPUSCULAR VOLUME: 61 fL
  MONOCYTE: 1%
  NEUTROPHIL: 6.33%
  NUCLEATED RED BLOOD CELLS: 0 /100WBC
  PLATELET COUNT: 1230 x10E3/uL
  ALANINE AMINOTRANSFERASE: 47 u/L
  ALBUMIN: 4.27 G/DL
  ALKALINE PHOSPHATASE: 395.67 u/L
  ASPARTATE AMINOTRANSFERASE: 103 u/L
  BLOOD UREA NITROGEN: 14.67 mg/dL
  CARBON DIOXIDE: 21.33 mmol/L
  CHLORIDE: 104.33 MEQ/L
  CHOLESTEROL: 72.33 mg/dL
  CREATINE PHOSPHOKINASE: 763 u/L
  CREATININE: 0.22 mg/dL
  GLUCOSE: 150.33 mg/dL
  LACTATE DEHYDROGENASE: 650.33 u/L
  LIPASE: 9.67 u/L
  PHOSPHORUS: 11.1 mg/dL
  POTASSIUM: 5.84 MEQ/L
  SODIUM: 144.4 MEQ/L
  TOTAL BILIRUBIN: 0.23 mg/dL
  TOTAL PROTEIN: 5.97 G/DL
  URIC ACID: 1.73 mg/dL
[2]
  ABSOLUTE BASOPHIL: 0 CELLS/uL
  ABSOLUTE EOSINOPHIL: 82 CELLS/uL
  ABSOLUTE LYMPHOCYTE: 11383.33 CELLS/uL
  ABSOLUTE MONOCYTE: 248.67 CELLS/uL
  ABSOLUTE SEGMENTED NEUTROPHIL: 719.33 CELLS/uL
  BASOPHIL: 0%
  EOSINOPHIL: 0.67%
  ERYTHROCYTE COUNT: 6.66 x10E6/uL
  HEMATOCRIT: 42.47%
  HEMOGLOBIN: 16.67 G/DL
  LEUKOCYTE COUNT: 12.43 x10E3/uL
  LYMPHOCYTE: 91.33%
  MEAN CORPUSCULAR HEMOGLOBIN: 25.07 pg
  MEAN CORPUSCULAR HEMOGLOBIN CONCENTRATION: 39.27 G/DL
  MEAN CORPUSCULAR VOLUME: 63.83 fL
  MONOCYTE: 2%
  NEUTROPHIL: 6%
  NUCLEATED RED BLOOD CELLS: 0 /100WBC
  PLATELET COUNT: 1265 x10E3/uL
  ALANINE AMINOTRANSFERASE: 92.67 u/L
  ALBUMIN: 4.43 G/DL
  ALKALINE PHOSPHATASE: 485 u/L
  ASPARTATE AMINOTRANSFERASE: 204 u/L
  BLOOD UREA NITROGEN: 18 mg/dL
  CARBON DIOXIDE: 19 mmol/L
  CHLORIDE: 95 MEQ/L
  CHOLESTEROL: 234.67 mg/dL
  CREATINE PHOSPHOKINASE: 2551 u/L
  CREATININE: 0.29 mg/dL
  GLUCOSE: 119.67 mg/dL
  LACTATE DEHYDROGENASE: 1110.67 u/L
  LIPASE: 14.67 u/L
  PHOSPHORUS: 14.47 mg/dL
  POTASSIUM: 7.66 MEQ/L
  SODIUM: 141.13 MEQ/L
  TOTAL BILIRUBIN: 0.47 mg/dL
  TOTAL PROTEIN: 6.5 G/DL
  URIC ACID: 2.7 mg/dL
[3]
  ABSOLUTE BASOPHIL: 0 CELLS/uL
  ABSOLUTE EOSINOPHIL: 63.33 CELLS/uL
  ABSOLUTE LYMPHOCYTE: 17542.67 CELLS/uL
  ABSOLUTE MONOCYTE: 192.67 CELLS/uL
  ABSOLUTE SEGMENTED NEUTROPHIL: 1468 CELLS/uL
  BASOPHIL: 0%
  EOSINOPHIL: 0.33%
  ERYTHROCYTE COUNT: 6.35 x10E6/uL
  HEMATOCRIT: 38.03%
  HEMOGLOBIN: 14.87 G/DL
  LEUKOCYTE COUNT: 19.27 x10E3/uL
  LYMPHOCYTE: 91%
  MEAN CORPUSCULAR HEMOGLOBIN: 23.37 pg
  MEAN CORPUSCULAR HEMOGLOBIN CONCENTRATION: 39.1 G/DL
  MEAN CORPUSCULAR VOLUME: 59.8 fL
  MONOCYTE: 1%
  NEUTROPHIL: 7.67%
  NUCLEATED RED BLOOD CELLS: 0 /100WBC
  PLATELET COUNT: 1370.33 x10E3/uL
  ALANINE AMINOTRANSFERASE: 101.67 u/L
  ALBUMIN: 4.07 G/DL
  ALKALINE PHOSPHATASE: 465 u/L
  ASPARTATE AMINOTRANSFERASE: 89.67 u/L
  BLOOD UREA NITROGEN: 18.33 mg/dL
  CARBON DIOXIDE: 25.67 mmol/L
  CHLORIDE: 100 MEQ/L
  CHOLESTEROL: 227.67 mg/dL
  CREATINE PHOSPHOKINASE: 489.33 u/L
  CREATININE: 0.22 mg/dL
  GLUCOSE: 124.33 mg/dL
  LACTATE DEHYDROGENASE: 134 u/L
  LIPASE: 12.67 u/L
  PHOSPHORUS: 12.77 mg/dL
  POTASSIUM: 6.56 MEQ/L
  SODIUM: 145.37 MEQ/L
  TOTAL BILIRUBIN: 0.2 mg/dL
  TOTAL PROTEIN: 6.2 G/DL
  URIC ACID: 1.77 mg/dL
